According to ChEMBL document CHEMBL1201862, “PubChem BioAssay data set” (2004):
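Cultured in 96-well plates, cells were exposed to test compound for 48 hours across five concentrations. GI50 = concentration required for 50% inhibition of growth.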 The source made the active and inactive calls. Rule as the data show it: active = GI50 up to about 1.1 µM and inactive = higher.

Legend:
Test in all cases: growth of human tumour cells (NCI), 48 h
K562 = test system: K562
MDA-N = test system: MDA-N
LOX IMVI = test system: LOX IMVI
SK-MEL-2 = test system: SK-MEL-2
EKVX = test system: EKVX
NCI-H460 = test system: NCI-H460
SNB-75 = test system: SNB-75
IGROV-1 = test system: IGROV-1
HOP-92 = test system: HOP-92
OVCAR-4 = test system: OVCAR-4
HOP-62 = test system: HOP-62
HT-29 = test system: HT-29
NCI-H23 = test system: NCI-H23
ACHN = test system: ACHN
PC-3 = test system: PC-3
SF-295 = test system: SF-295
HL-60 = test system: HL-60
Hs-578T = test system: Hs-578T
COLO 205 = test system: COLO 205
NCI/ADR-RES = test system: NCI/ADR-RES

SMILES	GI50 (K562)	GI50 (MDA-N)	GI50 (LOX IMVI)	GI50 (SK-MEL-2)	GI50 (EKVX)	GI50 (NCI-H460)	GI50 (SNB-75)	GI50 (IGROV-1)	GI50 (HOP-92)	GI50 (OVCAR-4)	GI50 (HOP-62)	GI50 (HT-29)	GI50 (NCI-H23)	GI50 (ACHN)	GI50 (PC-3)	GI50 (SF-295)	GI50 (HL-60)	GI50 (Hs-578T)	GI50 (COLO 205)	GI50 (NCI/ADR-RES)
O=C(O)CO/N=C1/C(=C2/C(=O)Nc3ccccc32)Nc2ccccc21	79.8 µM (inactive)	50.9 µM (inactive)	28.4 µM (inactive)	25.8 µM (inactive)	24.9 µM (inactive)	72.8 µM (inactive)	27 µM (inactive)	22.9 µM (inactive)	37.9 µM (inactive)	48.5 µM (inactive)	86.3 µM (inactive)	44.5 µM (inactive)	31.6 µM (inactive)	> 100 µM (inactive)	33.9 µM (inactive)	89.9 µM (inactive)	64.4 µM (inactive)	29.6 µM (inactive)	57.5 µM (inactive)	> 100 µM (inactive)
O=C1C(Cl)C(c2cc3cc(Br)ccc3nc2Cl)N1c1ccc(F)c(Cl)c1 (stereo not given)	3.07 µM (inactive)	7.03 µM (inactive)	0.055 µM (active)	8.83 µM (inactive)	1.42 µM (inactive)	11.7 µM (inactive)	8.61 µM (inactive)	0.957 µM (active)	1.31 µM (inactive)	1.76 µM (inactive)	1.76 µM (inactive)	10.7 µM (inactive)	3.83 µM (inactive)	8.53 µM (inactive)	3.59 µM (inactive)	7.14 µM (inactive)	2.47 µM (inactive)	20.1 µM (inactive)	6.62 µM (inactive)	5.57 µM (inactive)
CO[C@H]1C[C@H](O[C@H]2CC[C@]3(C=O)[C@H]4CC[C@]5(C)[C@@H](C6=CC(=O)OC6)CC[C@]5(O)[C@@H]4CC[C@]3(O)C2)O[C@H](C)[C@H]1O[C@@H]1O[C@H](CO)[C@@H](O)[C@H](O)[C@H]1O	> 0.01 µM (active)	3.94e-05 µM (active)	2.61e-05 µM (active)	8.26e-05 µM (active)	7e-06 µM (active)	9.04e-06 µM (active)	5.1e-05 µM (active)	> 0.01 µM (active)	5.83e-05 µM (active)	8.63e-06 µM (active)	1.26e-05 µM (active)	3.03e-05 µM (active)	7.87e-06 µM (active)	9.16e-06 µM (active)	2.06e-05 µM (active)	2.04e-05 µM (active)	> 0.01 µM (active)	> 0.01 µM (active)	0.00011 µM (active)	1.15e-05 µM (active)
CCCCCCCCCCCCCC(=O)OCC(CCS(=O)(=O)O[C@H]1CC[C@@]2(C)C(=CC[C@@H]3C2CC[C@]2(C)C(=O)CCC32)C1)OC(=O)CCCCCCCCCCCCC (stereo not given in full)	> 100 µM (inactive)	> 100 µM (inactive)	> 100 µM (inactive)	> 100 µM (inactive)	> 100 µM (inactive)	> 100 µM (inactive)	> 100 µM (inactive)	> 100 µM (inactive)	> 100 µM (inactive)	> 100 µM (inactive)	> 100 µM (inactive)	> 100 µM (inactive)	> 100 µM (inactive)	> 100 µM (inactive)	> 100 µM (inactive)	> 100 µM (inactive)	> 100 µM (inactive)	> 100 µM (inactive)	> 100 µM (inactive)	> 100 µM (inactive)
COc1cc2c(cc1OC)-c1cc3cc(OC)c(OC)cc3c(=O)n1CC2	10.4 µM (inactive)	67.9 µM (inactive)	13.2 µM (inactive)	11.5 µM (inactive)	28.8 µM (inactive)	> 25.6 µM (inactive)	9.4 µM (inactive)	4.91 µM (inactive)	2.34 µM (inactive)	30.3 µM (inactive)	6.5 µM (inactive)	28.6 µM (inactive)	46.5 µM (inactive)	14.4 µM (inactive)	21.2 µM (inactive)	11.5 µM (inactive)	17.7 µM (inactive)	6 µM (inactive)	26.5 µM (inactive)	21.7 µM (inactive)
[N-]=[N+]=NC1=NNC2(C(=O)N1)c1ccccc1-c1ccccc12	> 100 µM (inactive)	> 100 µM (inactive)	> 100 µM (inactive)	> 100 µM (inactive)	> 100 µM (inactive)	> 100 µM (inactive)	> 100 µM (inactive)	> 100 µM (inactive)	> 100 µM (inactive)	> 100 µM (inactive)	> 100 µM (inactive)	> 100 µM (inactive)	> 100 µM (inactive)	> 100 µM (inactive)	> 100 µM (inactive)	> 100 µM (inactive)	> 100 µM (inactive)	27.6 µM (inactive)	> 100 µM (inactive)	> 100 µM (inactive)
